{"source": "patent US20140193871A1", "about": "“METHOD FOR ENHANCING CARBON BIOFIXATION” (Industrial Technology Research Institute, priority 2013, published 2014)", "key": {"[1]": {"tested_on": "Clostridium ljungdahlii BCRC 17797", "assay": "Growth (OD600) of Clostridium ljungdahlii under CO2/H2 gas mixture", "format": "cell-based", "conditions": "for OD600 value: t=144 hours, 2.5 g/L sodium lactate or 1.52 g/L NaCl in mPETC, 80% H2/20% CO2, 37° C.", "method": "(§1) Clostridium ljungdahlii was first cultured anaerobically with mPETC medium containing 10 g/L of fructose at 37° C. in one of the air-tight bottles mentioned above. When OD600 reached a value ranging from 1 to 1.5, the culture medium was centrifuged at 3500 rpm for 210 seconds. The resulting cell pellet was resuspended with mPETC without fructose and then further cultured anaerobically at 37° C. for one hour to remove any residual sugar substrates.\n(§2) 45 ml of mPETC culture medium was added to one of the crimp-top serum bottles mentioned above, which was then covered with an aluminum foil and autoclaved for 15 minutes at 121° C., 15 psi. After cooling, the medium-containing bottle was moved into an anaerobic chamber, and 50 μl of cysteine-HCl (50% w/v) was added to the medium to remove any dissolved oxygen.\n(§3) For an experimental group, sodium lactate solution was further added to the culture medium to obtain a lactate concentration of 2.5 g/L (about 0.022 M).\n(§4) For a sodium ion control group, NaCl solution was added to the culture medium to obtain a NaCl concentration of 1.52 g/L (about 0.026 M). This control group was designed to test whether the sodium ions present in the sodium lactate play any role in carbon dioxide fixation. Thus, the same molar amount of sodium ion as the experimental group was added.\n(§5) Each of the serum bottles containing 45 ml of mPETC culture medium was then inoculated with 5 ml of Clostridium ljungdahlii culture that had residual sugar removed. A sample taken at this point was labeled as t=0 sample. The bottles were then sealed with rubber stoppers and further covered with aluminum crimp caps to ensure an air-tight closure.\nThe headspaces of the air-tight bottles were first purged with a gas mixture containing 80% N2 and 20% of CO2 under a pressure of 10 psi. Needles were inserted into the rubber stops to allow the gas to escape from the bottles. […]\nSyringes with needles were used to collect liquid samples. […] The supernatant was analyzed with an Agilent 1100 series high-performance liquid chromatography (HPLC) with Aminex HPX-87 H (300 mm×7.8 mm) column."}, "[2]": {"tested_on": "Clostridium ljungdahlii BCRC 17797", "assay": "HPLC analysis of culture medium: acetic acid produced and lactic acid consumed during CO2 fermentation", "format": "cell-based", "conditions": "for carbon atoms contained in acetic acid produced / Acetic Acid ΔC (Ct=144 h − Ct=0), acetic acid produced: 144 hours of culture; for Acetic Acid ΔC (Ct=144 h − Ct=0), acetic acid produced / Acetic Acid Ct=0 h / Acetic Acid Ct=144 h: 2.5 g/L sodium lactate or 1.52 g/L sodium chloride in mPETC; for Acetic Acid Ct=0 h: t=0; for Acetic Acid Ct=144 h: t=144 hours; for Acetate production: after 96 hours of culture", "method": "as §1, §2, §3, §4, §5\nThe headspaces of the air-tight bottles were first purged with a gas mixture containing 80% N2 and 20% of CO2 under a pressure of 10 psi. Needles were inserted into the rubber stops to allow the gas to escape from the bottles. After about 30 seconds of exposure to the gas mixture, an anaerobic condition filled with CO2 was obtained within the bottles.\nUsing needles, the headspaces of the bottles were then further purged with another gas mixture containing 80% H2 and 20% of CO2 under a pressure of 20 psi to replace the previous gas mixture. After about 30 seconds, needles were removed and the pressure within the bottles was built up to about 20 psi. The bottles were then moved to a 37° C. incubator and placed on a shaker providing a shaking speed of 100 rpm.\nEvery 12 hours, a needle was used to release the gas built up within the bottle, and the headspace of the bottle was purged and refreshed under the same process as described above to replenish gaseous carbon source under a stabilized pressure.\n(§6) Syringes with needles were used to collect liquid samples. After measuring the OD600, the liquid samples were centrifuged at 12,000 rpm for 10 minutes. The resulting cell pellet was stored in 700 μl TRIzol solution for later RNA extraction and gene expression analysis. The supernatant was analyzed with an Agilent 1100 series high-performance liquid chromatography (HPLC) with Aminex HPX-87 H (300 mm×7.8 mm) column.\nThe experimental protocol as described in Example 1 was repeated, except that, besides having a no-additive control group, two experimental groups were prepared, one had 1 g/L of lactate in the culture medium and the other had 2.5 g/L of lactate in the culture medium."}, "[3]": {"tested_on": "lactate permease and genes involved in the Wood-Ljungdahl pathway", "assay": "RT-qPCR expression of lactate permease and Wood-Ljungdahl pathway genes", "format": "cell-based, Clostridium ljungdahlii", "conditions": "2.5 g/L sodium lactate; relative to no-additive control group (FIG. 3)", "method": "as §6\nReal-time quantitative polymerase chain reaction (RT-qPCR) was used to quantify the expression of certain genes listed in Table 2."}}}
{"smiles": "[Cl-].[Na+]", "note": "[sodium chloride, reference compound]", "values": [{"measurement": "OD600 value", "setting": "[1]", "value": 0.82}, {"measurement": "carbon atoms contained in acetic acid produced", "setting": "[2]", "value": "about 0.166 M"}, {"measurement": "Acetic Acid ΔC (Ct=144 h − Ct=0), acetic acid produced", "setting": "[2]", "value": 4.91, "unit": "g/L"}, {"measurement": "Acetic Acid ΔC (Ct=144 h − Ct=0), acetic acid produced", "setting": "[2]; listed as sodium-ion control group", "value": "about 4.97 g/L"}, {"measurement": "Acetic Acid Ct=0 h", "setting": "[2]", "value": "0.06 ± 0.00", "unit": "g/L"}, {"measurement": "Acetic Acid Ct=144 h", "setting": "[2]", "value": "4.97 ± 0.82", "unit": "g/L"}]}
{"smiles": "CC(O)C(=O)O", "note": "(stereo not shown) [sodium lactate]", "values": [{"measurement": "difference in growth rates between groups", "setting": "[1]; experimental, sodium ion control and no-additive control groups, up to 144 hours", "value": "no significant difference"}, {"measurement": "OD600 value", "setting": "[1]", "value": 0.71}, {"measurement": "Acetate production", "setting": "[2]; 1 g/L lactate in medium", "value": "8.13 ± 1.59", "unit": "g/L"}, {"measurement": "Acetate production", "setting": "[2]; 2.5 g/L lactate in medium", "value": "9.15 ± 0.06", "unit": "g/L"}, {"measurement": "carbon atoms contained in acetic acid produced", "setting": "[2]", "value": "about 0.213 M"}, {"measurement": "Acetic Acid ΔC (Ct=144 h − Ct=0), acetic acid produced", "setting": "[2]", "value": 6.39, "unit": "g/L"}, {"measurement": "amount of CO2 converted (fixed) to acetic acid, higher than control group", "setting": "[2]; 144 hours, 0.191 M versus 0.166 M of control group", "value": "at least 15%"}, {"measurement": "carbon atoms that came from CO2 in the gas mixture (CO2 fixed to acetic acid)", "setting": "[2]; 144 hours, 2.5 g/L sodium lactate, 0.213 M minus 0.022 M", "value": "at least 0.191 M"}, {"measurement": "Acetic Acid Ct=0 h", "setting": "[2]", "value": "0.06 ± 0.00", "unit": "g/L"}, {"measurement": "Acetic Acid Ct=144 h", "setting": "[2]", "value": "6.45 ± 0.43", "unit": "g/L"}, {"measurement": "fold increase of CooS1", "setting": "[3]", "value": "~3", "unit": "fold"}, {"measurement": "fold increase of lactate permease", "setting": "[3]", "value": "~11", "unit": "fold"}, {"measurement": "fold increase of metF", "setting": "[3]", "value": "~4", "unit": "fold"}]}
